Results taken from ChEMBL document CHEMBL5223109, “The discovery of BMS-737 as a potent, CYP17 lyase-selective inhibitor for the treatment of castration-resistant prostate cancer” (Bioorg Med Chem Lett, 2022).

Tests used:
Cytochrome P450 1A2 = target: T1, Cytochrome P450 1A2 (Homo sapiens, UniProt P05177); test: Inhibition of CYP1A2 (unknown origin); assay type: ADME
T1 sequence (P05177 whole entry): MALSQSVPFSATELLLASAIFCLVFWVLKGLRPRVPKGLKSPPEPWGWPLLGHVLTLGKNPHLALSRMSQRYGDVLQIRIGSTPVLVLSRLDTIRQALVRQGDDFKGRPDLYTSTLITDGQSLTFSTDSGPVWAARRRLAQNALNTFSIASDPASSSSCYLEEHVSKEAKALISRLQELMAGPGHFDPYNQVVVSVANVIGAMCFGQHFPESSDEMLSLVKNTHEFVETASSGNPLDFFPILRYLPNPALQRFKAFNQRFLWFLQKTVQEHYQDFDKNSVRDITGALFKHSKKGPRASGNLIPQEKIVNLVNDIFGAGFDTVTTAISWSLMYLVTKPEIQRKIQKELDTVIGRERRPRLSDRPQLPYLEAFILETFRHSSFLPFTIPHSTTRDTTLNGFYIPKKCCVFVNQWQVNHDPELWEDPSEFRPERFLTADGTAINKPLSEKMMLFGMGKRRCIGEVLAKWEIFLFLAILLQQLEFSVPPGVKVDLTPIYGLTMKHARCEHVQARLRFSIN

[1] = Inhibition of cynomolgus monkey CYP21A2; assay type: ADME, Macaca fascicularis
[2] = AUC in cynomolgus monkey at 1 mg/kg, po; assay type: ADME, organism-based, Macaca fascicularis; set-up: dose 1 mg/kg, route po; details: in vivo
Cytochrome P450 3A4 = Cytochrome P450 3A4 (Homo sapiens, UniProt P08684); test: Induction of recombinant human CYP3A4; assay type: ADME; details: recombinant enzyme
[3] = target: T2, Steroid 17-alpha-hydroxylase/17,20 lyase (Macaca fascicularis, UniProt Q2XVA1); test: In vivo inhibition of CYP17A1 in cynomolgus monkey assessed as change in cortisol level in blood at 1 mg/kg, po measured upto 24 hrs; assay type: functional, organism-based
T2 sequence (Q2XVA1 whole entry): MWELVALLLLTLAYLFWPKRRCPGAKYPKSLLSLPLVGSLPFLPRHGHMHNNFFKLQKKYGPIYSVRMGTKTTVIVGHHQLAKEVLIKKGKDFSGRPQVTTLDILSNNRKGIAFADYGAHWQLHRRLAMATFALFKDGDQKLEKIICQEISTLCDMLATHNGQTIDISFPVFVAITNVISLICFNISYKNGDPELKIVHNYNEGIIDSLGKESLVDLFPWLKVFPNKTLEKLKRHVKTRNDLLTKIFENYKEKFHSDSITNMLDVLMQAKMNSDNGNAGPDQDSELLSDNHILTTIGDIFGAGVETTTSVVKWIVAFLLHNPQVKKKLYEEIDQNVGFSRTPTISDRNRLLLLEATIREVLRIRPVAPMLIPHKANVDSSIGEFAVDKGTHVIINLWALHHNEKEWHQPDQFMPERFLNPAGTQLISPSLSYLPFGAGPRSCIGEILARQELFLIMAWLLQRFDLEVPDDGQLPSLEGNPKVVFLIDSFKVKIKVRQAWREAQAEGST

Cytochrome P450 3A4, sequence (P08684 whole entry): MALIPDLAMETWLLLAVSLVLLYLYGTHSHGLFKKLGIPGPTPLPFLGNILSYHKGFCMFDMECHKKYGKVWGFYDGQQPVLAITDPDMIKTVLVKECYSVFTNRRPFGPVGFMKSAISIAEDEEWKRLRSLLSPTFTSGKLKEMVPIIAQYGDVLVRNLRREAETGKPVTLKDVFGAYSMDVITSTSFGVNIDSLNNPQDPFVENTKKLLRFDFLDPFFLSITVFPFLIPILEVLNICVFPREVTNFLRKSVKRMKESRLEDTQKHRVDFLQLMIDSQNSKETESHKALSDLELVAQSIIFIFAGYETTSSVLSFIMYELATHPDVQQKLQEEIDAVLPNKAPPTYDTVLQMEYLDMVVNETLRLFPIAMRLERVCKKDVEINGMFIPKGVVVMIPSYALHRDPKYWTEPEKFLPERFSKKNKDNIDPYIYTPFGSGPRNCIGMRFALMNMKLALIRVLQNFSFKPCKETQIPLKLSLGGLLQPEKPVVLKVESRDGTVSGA

- IC50 (Cytochrome P450 1A2): > 40 µM
- IC50 [1]: > 10 µM
- AUC [2]: 26 µM·h
- Activity (Cytochrome P450 3A4): Not Active
- inhibition (INH) [3]: Not Active
SMILES: Nc1ncncc1-c1ccnc2c1cnn2-c1ccc(F)cc1
